Laboratory results published in article PMC8582576, “New Therapeutic Strategy for Overcoming Multidrug Resistance in Cancer Cells with Pyrazolo[3,4-d]pyrimidine Tyrosine Kinase Inhibitors” (Cancers, 2021).
Where “and” joins values, the source holds several entries; their conditions need not be identical. Equal values may be shown once. Entries after “also recorded” stand apart in the source; their conditions may differ.

Legend:
NCI-H460/R [1] = test: MTT assay, reversal of DOX resistance in NCI-H460/R cells; assay type: cell-based, human; conditions: for Relative Reversal of DOX resistance: IC50 DOX alone / IC50 in combination
Description: (§1) The metabolic activity of viable cells was measured by MTT assay. Cells grown in 25 cm^2 tissue flasks were trypsinized, seeded into flat-bottomed 96-well tissue culture plates, and incubated overnight. Subsequently, the cells were treated with increasing concentrations of Si306, pro-Si306, and dasatinib (1–25 μM), as well as with Si221 and pro-Si221 (2.5–50 μM) for 72 h. In addition, the combined effects of Si306, pro-Si306, and pro-Si221with DOX as well as with PTX were studied in NCI-H460/R and DLD1-TxR cells, respectively. In simultaneous treatments that lasted 72 h in NCI-H460/R and DLD1-TxR cells, two concentrations of Si306, pro-Si306, and pro-Si221 (0.2 μM and 0.5 μM) were combined with increasing concentrations of DOX and PTX (0.1–2 μM). After treatment, MTT was added to each well at a final concentration of 0.2 mg/mL for 3 h. Then, formazan produced in cells with intact/viable mitochondria was dissolved in 200 μL of DMSO, and the absorbance was measured at 570 nm on a Multiskan Sky Microplate Spectrophotometer (ThermoFisher Scientific, United States). The IC50 value is defined as the concentration of a drug that decreases cell viability by 50% and was calculated by nonlinear regression analysis using GraphPad Prism 6.0 for Windows (La Jolla, CA, USA). Relative reversal was calculated as a relation between the IC50 values of DOX and PTX alone obtained in NCI-H460/R and DLD1-TxR cells, respectively and the IC50 values of DOX and PTX in combination with Pro-Si306 and Pro-Si221.

NCI-H460 = test: MTT cell viability assay, NCI-H460; assay type: cell-based; conditions: Homo sapiens, 72 h, read-out: Decrease in cell viability, IC50
Description: as §1

NCI-H460/R [2] = test: MTT cell viability assay, NCI-H460/R; assay type: cell-based, human; conditions: for IC50: Homo sapiens, NCI-H460/R (MDR), MTT, 72 h, read-out: Decrease in cell viability, IC50; for fold lower IC50 in MDR NCI-H460/R than in sensitive NCI-H460 cells: NCI-H460/R vs NCI-H460, MTT
Description: as §1

DLD1 = test: MTT cell viability assay, DLD1; assay type: cell-based; conditions: Homo sapiens, DLD-1, 72 h, read-out: Decrease in cell viability, IC50
Description: as §1

DLD1-TxR [3] = test: MTT cell viability assay, DLD1-TxR; assay type: cell-based; conditions: Homo sapiens, DLD1-TxR (MDR), 72 h, read-out: Decrease in cell viability, IC50
Description: as §1

[4] = tested on: NCI-H460, NCI-H460/R, DLD1, DLD1-TxR; test: MTT cell viability assay, two sensitive/MDR cancer cell line pairs; assay type: cell-based; conditions: Homo sapiens, summary over the four cell lines, 72 h
Description: as §1

P-gp [5] = molecular target: T1, P-gp (Homo sapiens, UniProt P08183); test: Rho 123 accumulation assay (P-gp activity) in NCI-H460/R cells; conditions: for P-gp inhibition by Rho 123 intracellular accumulation / IC50 / kinetics of P-gp inhibition (Rho123 accumulation): NCI-H460/R; for P-gp inhibition by Rho 123 intracellular accumulation: 10 µM, 30-min treatment, compared with Dex-VER; for IC50: IC50 for P-gp inhibition, Rho123 accumulation, 30 min; for kinetics of P-gp inhibition (Rho123 accumulation): 24-, 48-, 96-, 168-h treatments, 10 µM pro-Si306, pro-Si221, 5 and 10 nM TQ
T1 sequence (P08183 whole entry): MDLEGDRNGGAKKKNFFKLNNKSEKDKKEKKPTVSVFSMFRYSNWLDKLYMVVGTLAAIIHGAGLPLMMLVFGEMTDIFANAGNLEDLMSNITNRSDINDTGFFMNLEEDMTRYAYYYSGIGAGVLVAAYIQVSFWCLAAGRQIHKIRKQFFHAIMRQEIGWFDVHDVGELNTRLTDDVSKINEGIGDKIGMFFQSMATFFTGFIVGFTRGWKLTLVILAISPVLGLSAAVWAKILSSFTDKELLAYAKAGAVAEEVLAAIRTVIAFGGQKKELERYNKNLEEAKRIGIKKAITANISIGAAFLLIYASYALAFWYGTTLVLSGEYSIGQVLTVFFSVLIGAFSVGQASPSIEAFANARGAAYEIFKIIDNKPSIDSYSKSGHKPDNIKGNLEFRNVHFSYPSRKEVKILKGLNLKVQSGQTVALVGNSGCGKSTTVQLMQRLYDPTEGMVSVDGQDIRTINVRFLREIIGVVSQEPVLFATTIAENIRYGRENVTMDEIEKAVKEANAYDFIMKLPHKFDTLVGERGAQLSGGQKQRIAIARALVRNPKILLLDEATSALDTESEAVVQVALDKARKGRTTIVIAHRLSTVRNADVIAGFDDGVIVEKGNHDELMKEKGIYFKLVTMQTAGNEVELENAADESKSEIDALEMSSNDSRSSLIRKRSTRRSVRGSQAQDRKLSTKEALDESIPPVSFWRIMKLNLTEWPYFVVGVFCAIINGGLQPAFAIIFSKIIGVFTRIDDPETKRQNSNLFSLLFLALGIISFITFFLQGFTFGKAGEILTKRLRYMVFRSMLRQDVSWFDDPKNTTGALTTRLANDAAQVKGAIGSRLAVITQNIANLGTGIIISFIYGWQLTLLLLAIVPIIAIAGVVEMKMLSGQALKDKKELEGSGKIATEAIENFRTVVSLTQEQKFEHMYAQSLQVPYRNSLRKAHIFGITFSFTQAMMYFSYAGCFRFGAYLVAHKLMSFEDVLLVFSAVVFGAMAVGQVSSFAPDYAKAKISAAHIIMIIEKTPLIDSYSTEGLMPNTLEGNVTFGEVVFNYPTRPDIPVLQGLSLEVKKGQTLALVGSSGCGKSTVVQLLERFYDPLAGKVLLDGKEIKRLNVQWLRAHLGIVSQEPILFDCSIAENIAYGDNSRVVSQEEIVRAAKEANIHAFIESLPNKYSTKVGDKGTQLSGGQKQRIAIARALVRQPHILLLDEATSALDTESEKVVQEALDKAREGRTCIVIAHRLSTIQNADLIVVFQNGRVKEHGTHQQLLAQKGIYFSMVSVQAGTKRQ
Description: (§3) The accumulation of fluorescent P-gp substrate Rho 123 was analyzed by flow cytometry. The intensity of fluorescence was proportional to Rho 123 accumulation in the cell. […] NCI-H460 and DLD1 cells were used as a positive control for Rho 123 accumulation. All cell lines were seeded in adherent 6-well plates and grown overnight. In simultaneous treatment that lasted 30 min, 5 μM Rho 123 was applied along with 10 μM of Si306, pro-Si306, Si221, pro-Si221, dasatinib, and Dex-VER. […] Samples were incubated for 30 min at 37 °C in 5% CO2. […] At the end of the accumulation period, the cells were trypsinized, pelleted by centrifugation, washed with PBS, and placed in ice-cold PBS. The samples were kept on ice in the dark until analysis on a CyFlow Space Partec flow cytometer (Sysmex Partec GmbH, Görlitz, Germany). The fluorescence of Rho 123 was detected on fluorescence channel 1 (FL1-H) at 530 nm. Three independent experiments were performed for each experimental setting. A minimum of 10,000 events was assayed for each sample, and the obtained results were analyzed using Summit Dako Software (ver. 4.3, Fort Collins, CO, USA).

DLD1-TxR [6] = test: MTT assay, reversal of PTX resistance in DLD1-TxR cells; assay type: cell-based, human; conditions: for Relative Reversal of PTX resistance: IC50 PTX alone / IC50 in combination
Description: as §1

P-gp expression [7] = test: Flow cytometric analysis of P-gp expression in NCI-H460/R cells; assay type: cell-based, human; conditions: 48-h treatment, Si306, pro-Si306 5 and 10 µM, pro-Si221 1 and 2 µM, TQ 5 and 10 nM
Description: (§2) The P-gp expression level in NCI-H460/R and DLD1-TxR was measured by flow cytometry. […] After 48 h, cells were collected by trypsinization, washed in PBS, and then directly immuno stained by FITC-conjugated anti-P-gp antibody according to the manufacturer’s protocol.

P-gp expression [8] = test: Flow cytometric analysis of P-gp expression in DLD1-TxR cells; assay type: cell-based, human; conditions: 48-h treatment, Si306, pro-Si306 5 and 10 µM, pro-Si221 1 and 2 µM, TQ 5 and 10 nM
Description: as §2

P-gp [9] = molecular target: T1, P-gp; test: P-gp ATPase activity assay (Pgp-Glo); assay type: biochemical; design: purchased Promega, Madison, WI, USA; conditions: 5 µM and 20 µM; verapamil positive control
Description: P-gp function depends on ATP hydrolysis energy, and compounds that interact with P-gp can stimulate or inhibit its ATPase activity. P-gp ATPase activity is usually stimulated by its substrates. The Pgp-GloTM assay system detects a compound’s effect on recombinant human P-gp in a cell membrane fraction. P-gp ATPase activity was measured using the luminescent Pgp-Glo^TM assay kit according to manufacturer’s instructions. Briefly, ATP was first incubated with P-gp; then, the P-gp ATPase reaction was stopped, and the remaining un-metabolized ATP was detected as a luciferase-generated luminescent signal. P-gp-dependent decreases in luminescence reflect ATP consumption by P-gp; thus, the greater the decrease in signal, the higher the P-gp activity. […] Na3VO4 is a noncompetitive inhibitor of P-gp ATPase activity. The difference in the luminescent signal, expressed as relative light units (RLU), between Na3VO4-treated samples and untreated samples represents the basal P-gp ATPase activity (ΔRLU basal). The difference in the luminescent signal between Na3VO4-treated samples and samples treated with the tested compounds represents P-gp ATPase activity in the presence of the tested compounds. […] The luminescence of samples treated with 5 μM and 20 μM of Si306, pro-Si306, and pro-Si221 was measured using a luminometer microplate reader (CHAMELEONTMV, Hidex, Turku, Finland).

P-gp [10] = molecular target: T1, P-gp; test: Rho 123 accumulation assay (P-gp activity) in DLD1-TxR cells; conditions: for P-gp inhibition by Rho 123 intracellular accumulation / kinetics of P-gp inhibition (Rho123 accumulation) / IC50: DLD1-TxR; for P-gp inhibition by Rho 123 intracellular accumulation: 10 µM, 30-min treatment, compared with Dex-VER; for kinetics of P-gp inhibition (Rho123 accumulation): 24-, 48-, 96-, 168-h treatments, 10 µM pro-Si306, 1 and 2 µM pro-Si221, 5 and 10 nM TQ; for IC50: IC50 for P-gp inhibition, Rho123 accumulation, 30 min
Description: as §3

Structure (SMILES) | IC50 (NCI-H460) | IC50 (NCI-H460/R [2]) | IC50 (DLD1) | IC50 (DLD1-TxR [3]) | IC50 [4] | P-gp inhibition by Rho 123 intracellular accumulation (P-gp [5]) | effect on P-gp expression (protein level) (P-gp expression [7]) | effect on P-gp expression (protein level) (P-gp expression [8]) | effect on ATPase activity of P-gp (P-gp [9]) | P-gp inhibition by Rho 123 intracellular accumulation (P-gp [10]) | kinetics of P-gp inhibition (Rho123 accumulation) (P-gp [10]) | IC50 (P-gp [10]) | IC50 (P-gp [5]) | kinetics of P-gp inhibition (Rho123 accumulation) (P-gp [5]) | also measured
COc1cccc2c1C(=O)c1c(O)c3c(c(O)c1C2=O)C[C@@](O)(C(=O)CO)C[C@@H]3O[C@H]1C[C@H](N)[C@H](O)[C@H](C)O1 [DOX, doxorubicin, reference compound] | – | – | – | – | – | – | – | – | – | – | – | – | – | – | IC50 (NCI-H460/R [1]; Homo sapiens, MTT, 72 h, read-out: IC50 of DOX alone): 0.905 ± 0.0444 µM
Cc1nc(Nc2ncc(C(=O)Nc3c(C)cccc3Cl)s2)cc(N2CCN(CCO)CC2)n1 [Dasatinib, reference compound] | 3.93 ± 0.295 µM | 6.88 ± 0.605 µM | 3.24 ± 0.411 µM | 2.9 ± 0.223 µM | < 10 µM | did not show potential to inhibit P-gp | – | – | – | – | – | – | – | – | –
CC(=O)O[C@H]1C(=O)[C@@]2(C)[C@H]([C@H](OC(=O)c3ccccc3)[C@]3(O)C[C@H](OC(=O)[C@H](O)[C@@H](NC(=O)c4ccccc4)c4ccccc4)C(C)=C1C3(C)C)[C@]1(OC(C)=O)CO[C@@H]1C[C@@H]2O [PTX, paclitaxel, reference compound] | – | – | – | – | – | – | – | – | – | – | – | – | – | – | IC50 (DLD1-TxR [6]; Homo sapiens, MTT, 72 h, read-out: IC50 of PTX alone): 1.05 ± 0.115 µM
CN1CCN(CCOC(=O)N(Cc2ccccc2Cl)c2ncnc3c2cnn3CC(Cl)c2ccc(Br)cc2)CC1 (stereo not drawn) [Pro-Si221] | 4.27 ± 0.509 µM | 5.14 ± 0.573 µM | 9.8 ± 1.15 µM | 5.7 ± 0.543 µM | < 10 µM | considerably more potent than that observed with Dex-VER | less pronounced effect on the increase in P-gp expression | tendency to decrease the P-gp expression | potential to inhibit the ATPase activity of P-gp; also recorded: highest inhibitory effect on ATPase activity | considerably more potent than that observed with Dex-VER | decline until 96 h when it reached stable P-gp inhibition | 669 ± 61 nM | 612 ± 72 nM | continued to decrease until 48 h when it reached stability and was sustained even after 168 h | Relative Reversal of DOX resistance (NCI-H460/R [1]; SFK inhibitor 0.2 µM): 1.8; Relative Reversal of DOX resistance (NCI-H460/R [1]; SFK inhibitor 0.5 µM): 7.1; Relative Reversal of PTX resistance (DLD1-TxR [6]; SFK inhibitor 0.2 µM): 2.0; Relative Reversal of PTX resistance (DLD1-TxR [6]; SFK inhibitor 0.5 µM): 3.2; inhibition at 30 min, 1 µM (P-gp [10]; human, DLD1-TxR cells, probe Rho 123 (5 µM)): 100%; inhibition at 30 min, 1 µM (P-gp [5]; human, NCI-H460/R cells, probe Rho 123 (5 µM)): 100%
CN1CCN(CCOC(=O)N(c2cccc(Br)c2)c2nc(SCCN3CCOCC3)nc3c2cnn3CC(Cl)c2ccccc2)CC1 (stereo not drawn) [Pro-Si306] | 2.41 ± 0.376 µM | 0.897 ± 0.102 µM | 2.45 ± 0.346 µM | 1.87 ± 0.128 µM | < 10 µM | considerably more potent than that observed with Dex-VER | less pronounced effect on the increase in P-gp expression | tendency to decrease the P-gp expression | potential to inhibit the ATPase activity of P-gp | considerably more potent than that observed with Dex-VER | reached stability after 96 h | 3000 nM and 2950 nM | 6200 nM and 6170 nM | reached stability after 96 h | fold lower IC50 in MDR NCI-H460/R than in sensitive NCI-H460 cells (NCI-H460/R [2]): more than 2 fold; Relative Reversal of DOX resistance (NCI-H460/R [1]; SFK inhibitor 0.2 µM): 3.2; Relative Reversal of DOX resistance (NCI-H460/R [1]; SFK inhibitor 0.5 µM): 10.2; Relative Reversal of PTX resistance (DLD1-TxR [6]; SFK inhibitor 0.2 µM): 1.5; Relative Reversal of PTX resistance (DLD1-TxR [6]; SFK inhibitor 0.5 µM): 2.5
Clc1ccccc1CNc1ncnc2c1cnn2CC(Cl)c1ccc(Br)cc1 (stereo not drawn) [Si221] | 14.6 ± 1.48 µM | 18.1 ± 2.08 µM | 34.1 ± 2.32 µM | 11.6 ± 1.29 µM | – | did not modulate the activity of P-gp | – | – | – | did not modulate the activity of P-gp | – | – | – | – | –
ClC(Cn1ncc2c(Nc3cccc(Br)c3)nc(SCCN3CCOCC3)nc21)c1ccccc1 (stereo not drawn) [Si306] | 6.24 ± 0.685 µM | 1.89 ± 0.184 µM | 3.93 ± 0.679 µM | 2.56 ± 0.183 µM | < 10 µM | considerably more potent than that observed with Dex-VER | significantly increased P-gp expression | tendency to decrease the P-gp expression | potential to inhibit the ATPase activity of P-gp | considerably more potent than that observed with Dex-VER | – | 6400 nM and 6440 nM | 13300 nM | – | fold lower IC50 in MDR NCI-H460/R than in sensitive NCI-H460 cells (NCI-H460/R [2]): more than 2 fold
COc1cc2c(cc1OC)CN(CCc1ccc(NC(=O)c3cc(OC)c(OC)cc3NC(=O)c3cnc4ccccc4c3)cc1)CC2 [TQ, tariquidar, reference compound] | – | – | – | – | – | – | increased the expression of P-gp | increased the expression of P-gp | – | – | reached stable P-gp inhibition after 48 h that was sustained until 168 h | – | – | reached stable P-gp inhibition after 48 h that was sustained until 168 h | IC50 (P-gp [10]; TQ values in nM (footnote a)): 0.925 ± 0.155 nM; IC50 (P-gp [5]; TQ values in nM (footnote a)): 1.07 ± 0.174 nM
